The text below walks through data of ChEMBL document CHEMBL1130772, “New nonsteroidal androgen receptor modulators based on 4-(trifluoromethyl)-2(1H)-pyrrolidino[3,2-g] quinolinone” (Bioorg Med Chem Lett, 1998).

In general, IC50 refers to the concentration needed to halve the response being measured. Read a high IC50 as weaker potency in that assay. By Ki is commonly meant a measure of affinity in units of concentration, obtained from inhibition or displacement. Read a high Ki as a looser hold on the target. In general, EC50 refers to the midpoint of the concentration-response curve. Read a low EC50 as a more potent agent.

The first assay addresses T1, Progesterone receptor (Homo sapiens, UniProt P06401).
T1 sequence (P06401 whole entry): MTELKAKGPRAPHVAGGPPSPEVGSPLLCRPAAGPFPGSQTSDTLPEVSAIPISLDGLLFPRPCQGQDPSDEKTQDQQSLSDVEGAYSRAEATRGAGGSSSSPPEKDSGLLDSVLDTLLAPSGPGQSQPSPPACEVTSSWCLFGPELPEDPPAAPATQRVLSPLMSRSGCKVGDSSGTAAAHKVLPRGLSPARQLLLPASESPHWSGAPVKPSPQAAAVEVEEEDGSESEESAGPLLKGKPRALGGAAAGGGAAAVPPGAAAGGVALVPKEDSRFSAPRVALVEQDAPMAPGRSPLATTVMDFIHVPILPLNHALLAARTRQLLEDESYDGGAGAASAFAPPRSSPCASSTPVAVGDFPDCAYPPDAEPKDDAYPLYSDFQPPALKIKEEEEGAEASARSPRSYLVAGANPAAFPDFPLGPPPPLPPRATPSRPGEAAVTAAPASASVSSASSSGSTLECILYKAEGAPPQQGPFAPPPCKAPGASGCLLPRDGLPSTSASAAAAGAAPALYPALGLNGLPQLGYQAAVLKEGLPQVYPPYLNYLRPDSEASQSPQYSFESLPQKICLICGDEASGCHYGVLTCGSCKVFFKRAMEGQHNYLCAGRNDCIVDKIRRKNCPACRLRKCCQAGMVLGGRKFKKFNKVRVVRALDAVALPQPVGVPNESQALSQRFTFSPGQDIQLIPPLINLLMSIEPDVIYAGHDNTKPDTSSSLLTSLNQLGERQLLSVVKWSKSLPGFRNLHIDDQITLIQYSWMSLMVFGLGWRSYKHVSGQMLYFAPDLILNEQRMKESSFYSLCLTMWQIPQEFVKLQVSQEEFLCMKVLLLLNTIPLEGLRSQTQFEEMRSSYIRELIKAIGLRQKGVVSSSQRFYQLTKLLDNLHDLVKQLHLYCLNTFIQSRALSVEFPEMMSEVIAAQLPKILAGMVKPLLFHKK
Description: (§1) Antagonistic activity against hPR in co-transfected CV-1 cell. The class given is functional, cell-based.
Molecule `Oc1cc(C(F)(F)F)c2cc3c(cc2n1)N[C@@H]1CCCC[C@H]31` registered an IC50 of 170 nM.

`Cn1c(=O)cc(C(F)(F)F)c2cc3c(cc21)N[C@@H]1CCCC[C@H]31` returned an IC50 of 150 nM.

`C[C@]12CCCC[C@H]1Nc1cc3[nH]c(=O)cc(C(F)(F)F)c3cc12` displayed an IC50 of 730 nM.

For the next assay, the target named is T2, Glucocorticoid receptor (Homo sapiens) (UniProt P04150).
T2 sequence (whole entry): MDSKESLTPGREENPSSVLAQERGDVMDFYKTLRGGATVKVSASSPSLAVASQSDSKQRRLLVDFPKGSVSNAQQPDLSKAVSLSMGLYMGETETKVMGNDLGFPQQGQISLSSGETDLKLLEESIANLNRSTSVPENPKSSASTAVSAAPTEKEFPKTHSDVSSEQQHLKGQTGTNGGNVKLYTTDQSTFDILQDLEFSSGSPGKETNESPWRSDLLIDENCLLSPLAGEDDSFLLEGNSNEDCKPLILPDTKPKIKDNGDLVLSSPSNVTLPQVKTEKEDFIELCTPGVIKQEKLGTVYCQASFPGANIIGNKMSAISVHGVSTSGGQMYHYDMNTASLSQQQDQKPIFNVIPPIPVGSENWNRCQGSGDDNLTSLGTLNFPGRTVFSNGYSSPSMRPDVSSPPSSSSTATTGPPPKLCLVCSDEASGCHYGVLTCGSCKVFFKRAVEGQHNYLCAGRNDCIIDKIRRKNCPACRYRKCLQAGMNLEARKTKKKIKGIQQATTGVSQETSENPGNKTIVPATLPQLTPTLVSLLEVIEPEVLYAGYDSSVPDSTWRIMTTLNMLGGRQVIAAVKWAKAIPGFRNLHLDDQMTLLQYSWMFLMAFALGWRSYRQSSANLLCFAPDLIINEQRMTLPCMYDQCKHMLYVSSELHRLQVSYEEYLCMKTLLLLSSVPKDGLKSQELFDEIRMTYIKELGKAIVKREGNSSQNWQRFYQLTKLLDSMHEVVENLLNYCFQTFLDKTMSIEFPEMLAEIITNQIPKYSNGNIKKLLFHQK
Description: (§2) Antagonistic activity against Glucocorticoid receptor in co-transfected CV-1 cell. Type of assay: functional, cell-based.
For the molecule `Oc1cc(C(F)(F)F)c2cc3c(cc2n1)N[C@@H]1CCCC[C@H]31`, the Efficacy amounted to 33%.

In turn, `Cn1c(=O)cc(C(F)(F)F)c2cc3c(cc21)N[C@@H]1CCCC[C@H]31` had an Efficacy of 39%.

The target of a further assay is T3, Androgen receptor (Homo sapiens, UniProt P10275).
T3 sequence (P10275 whole entry): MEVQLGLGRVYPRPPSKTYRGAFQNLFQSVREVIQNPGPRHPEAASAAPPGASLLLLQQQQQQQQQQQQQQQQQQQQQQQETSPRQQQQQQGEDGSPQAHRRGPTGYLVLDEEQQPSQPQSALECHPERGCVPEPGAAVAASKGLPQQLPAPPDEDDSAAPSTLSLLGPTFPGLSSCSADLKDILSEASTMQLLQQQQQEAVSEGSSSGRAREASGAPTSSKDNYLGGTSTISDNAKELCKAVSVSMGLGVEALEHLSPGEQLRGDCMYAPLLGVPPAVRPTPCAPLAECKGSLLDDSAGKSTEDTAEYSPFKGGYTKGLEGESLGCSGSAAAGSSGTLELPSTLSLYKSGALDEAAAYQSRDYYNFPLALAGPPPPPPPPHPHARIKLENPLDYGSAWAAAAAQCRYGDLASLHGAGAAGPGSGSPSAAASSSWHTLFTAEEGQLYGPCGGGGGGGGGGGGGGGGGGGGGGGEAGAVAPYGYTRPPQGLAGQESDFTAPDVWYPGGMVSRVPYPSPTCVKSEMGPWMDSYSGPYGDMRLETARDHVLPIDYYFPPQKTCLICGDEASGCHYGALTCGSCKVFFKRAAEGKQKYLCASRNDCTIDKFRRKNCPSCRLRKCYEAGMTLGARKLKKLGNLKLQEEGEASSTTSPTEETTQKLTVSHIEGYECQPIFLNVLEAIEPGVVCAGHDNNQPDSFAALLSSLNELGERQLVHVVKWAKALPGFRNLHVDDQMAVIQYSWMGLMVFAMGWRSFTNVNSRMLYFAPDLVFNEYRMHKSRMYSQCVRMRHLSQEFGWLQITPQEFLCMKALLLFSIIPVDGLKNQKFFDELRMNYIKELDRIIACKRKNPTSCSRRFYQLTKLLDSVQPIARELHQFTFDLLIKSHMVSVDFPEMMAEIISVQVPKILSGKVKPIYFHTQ
Kind of assay: Antagonistic activity (IC50) against human androgen receptor (hAR) in co-transfected CV-1 cell. The class given is functional, cell-based.
For the molecule `Oc1cc(C(F)(F)F)c2cc3c(cc2n1)N[C@@H]1CCCC[C@H]31`, the IC50 result is reported as “Not Active”.

With `Cn1c(=O)cc(C(F)(F)F)c2cc3c(cc21)N[C@@H]1CCCC[C@H]31`, the half-maximal inhibitory concentration (IC50) entry is recorded as “Not Active”.

In the next assay the target is T4, Progesterone receptor (Homo sapiens) (UniProt P06401).
T4 sequence (whole entry): T1 sequence (P06401 whole entry)
The assay is described as §1. Type of assay: functional, cell-based.
For the molecule `Oc1cc(C(F)(F)F)c2cc3c(cc2n1)N[C@@H]1CCCC[C@H]31`, the Efficacy is 91%.

`Cn1c(=O)cc(C(F)(F)F)c2cc3c(cc21)N[C@@H]1CCCC[C@H]31` gave an Efficacy of 99%.

A further assay deals with T3, Androgen receptor. Kind of assay: Binding affinity against Androgen receptor transfected into COS cells.
Molecule `Oc1cc(C(F)(F)F)c2cc3c(cc2n1)N[C@@H]1CCCC[C@H]31` came in with an inhibition constant Ki of 5 nM.

Molecule `Cn1c(=O)cc(C(F)(F)F)c2cc3c(cc21)N[C@@H]1CCCC[C@H]31` registered a Ki of 4 nM.

`C[C@]12CCCC[C@H]1Nc1cc3[nH]c(=O)cc(C(F)(F)F)c3cc12` returned a Ki of 21 nM.

Another assay deals with T5, Mineralocorticoid receptor (Homo sapiens, UniProt P08235).
T5 sequence (P08235 whole entry): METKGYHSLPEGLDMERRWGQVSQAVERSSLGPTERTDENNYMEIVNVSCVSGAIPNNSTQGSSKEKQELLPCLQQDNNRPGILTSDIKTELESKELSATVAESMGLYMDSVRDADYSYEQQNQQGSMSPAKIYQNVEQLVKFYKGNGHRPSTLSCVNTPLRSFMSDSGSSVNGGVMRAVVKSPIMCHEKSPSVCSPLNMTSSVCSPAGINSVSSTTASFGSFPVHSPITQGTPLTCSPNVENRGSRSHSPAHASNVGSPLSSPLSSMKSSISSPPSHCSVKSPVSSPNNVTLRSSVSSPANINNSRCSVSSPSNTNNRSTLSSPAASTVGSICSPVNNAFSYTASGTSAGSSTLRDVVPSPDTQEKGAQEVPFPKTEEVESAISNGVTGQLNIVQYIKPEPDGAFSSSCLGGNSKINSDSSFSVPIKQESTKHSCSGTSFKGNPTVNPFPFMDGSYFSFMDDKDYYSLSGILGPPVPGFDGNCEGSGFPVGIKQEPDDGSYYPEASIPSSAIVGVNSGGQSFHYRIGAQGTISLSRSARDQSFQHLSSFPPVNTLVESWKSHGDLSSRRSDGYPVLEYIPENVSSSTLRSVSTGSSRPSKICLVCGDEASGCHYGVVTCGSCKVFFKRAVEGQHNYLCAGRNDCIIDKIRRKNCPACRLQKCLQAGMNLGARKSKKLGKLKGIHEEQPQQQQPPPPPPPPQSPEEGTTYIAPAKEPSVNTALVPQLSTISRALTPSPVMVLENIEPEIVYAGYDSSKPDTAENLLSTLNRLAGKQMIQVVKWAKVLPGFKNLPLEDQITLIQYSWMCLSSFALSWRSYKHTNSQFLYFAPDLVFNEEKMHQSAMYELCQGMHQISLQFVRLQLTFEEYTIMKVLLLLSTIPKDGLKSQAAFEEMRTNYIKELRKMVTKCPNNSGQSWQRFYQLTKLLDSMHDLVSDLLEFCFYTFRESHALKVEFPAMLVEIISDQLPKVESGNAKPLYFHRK
Description: (§3) Antagonistic activity against hMR in co-transfected CV-1 cell. The class given is functional, cell-based.
Consider `Oc1cc(C(F)(F)F)c2cc3c(cc2n1)N[C@@H]1CCCC[C@H]31`, for which 2000 nM corresponded to half-maximal inhibition (IC50).

In turn, `Cn1c(=O)cc(C(F)(F)F)c2cc3c(cc21)N[C@@H]1CCCC[C@H]31` displayed a half-maximal inhibitory concentration (IC50) of 2900 nM.

Molecule `C[C@]12CCCC[C@H]1Nc1cc3[nH]c(=O)cc(C(F)(F)F)c3cc12` had a half-maximal inhibitory concentration (IC50) of 1900 nM.

For the next assay, the target named is T6, Mineralocorticoid receptor (Homo sapiens) (UniProt P08235).
T6 sequence (whole entry): T5 sequence (P08235 whole entry)
Described as §3. Type of assay: functional, cell-based.
In turn, `Oc1cc(C(F)(F)F)c2cc3c(cc2n1)N[C@@H]1CCCC[C@H]31` gave an Efficacy of 54%.

For `Cn1c(=O)cc(C(F)(F)F)c2cc3c(cc21)N[C@@H]1CCCC[C@H]31`, the Efficacy is 58%.

Another assay deals with T3, Androgen receptor. Description: Agonistic activity (EC50) against human androgen receptor (hAR) in co-transfected CV-1 cell. Type of assay: functional, cell-based.
Turning to `Oc1cc(C(F)(F)F)c2cc3c(cc2n1)N[C@@H]1CCCC[C@H]31`, a half-maximal effect (EC50) was put at 5 nM.

Turning to `Cn1c(=O)cc(C(F)(F)F)c2cc3c(cc21)N[C@@H]1CCCC[C@H]31`, a half-maximal effect (EC50) was put at 10 nM.

`C[C@]12CCCC[C@H]1Nc1cc3[nH]c(=O)cc(C(F)(F)F)c3cc12` had a 50% effective concentration (EC50) of 25 nM.

Another assay has as its target T7, Glucocorticoid receptor (Homo sapiens, UniProt P04150).
T7 sequence (P04150 whole entry): T2 sequence (whole entry)
The description is as §2. The class given is functional, cell-based.
The molecule `Oc1cc(C(F)(F)F)c2cc3c(cc2n1)N[C@@H]1CCCC[C@H]31` registered a half-inhibitory concentration (IC50) of 5.8 µM.

With `Cn1c(=O)cc(C(F)(F)F)c2cc3c(cc21)N[C@@H]1CCCC[C@H]31`, half-maximal inhibition (IC50) was put at 3 µM.

For the molecule `C[C@]12CCCC[C@H]1Nc1cc3[nH]c(=O)cc(C(F)(F)F)c3cc12`, inhibition was half-maximal at 2.1 µM (IC50).

A further assay has as its target T8, Estrogen receptor (Homo sapiens, UniProt Q92731+P03372). Kind of assay: (§4) Antagonistic activity against Estrogen receptor in co-transfected CV-1 cell. The class given is functional, cell-based.
As to `Oc1cc(C(F)(F)F)c2cc3c(cc2n1)N[C@@H]1CCCC[C@H]31`, the IC50 was > 10 µM.

Turning to `Cn1c(=O)cc(C(F)(F)F)c2cc3c(cc21)N[C@@H]1CCCC[C@H]31`, the half-inhibitory concentration (IC50) is > 10 µM.

The target in another assay is T8, Estrogen receptor. Described as §4. Type of assay: functional, cell-based.
With `Oc1cc(C(F)(F)F)c2cc3c(cc2n1)N[C@@H]1CCCC[C@H]31`, the Efficacy was < 20%.

On to `Cn1c(=O)cc(C(F)(F)F)c2cc3c(cc21)N[C@@H]1CCCC[C@H]31`, for which the Efficacy was < 20%.
